Results taken from patent publication US20220204498A1, “PYRIDO-PYRIMIDINYL COMPOUNDS AND METHODS OF USE” (Genentech, Inc., priority 2019, published 2022).
Counter-ions that a name gives are not always drawn.

Target: T1, IRE1α (Homo sapiens, UniProt O75460, D688N)
T1 construct: containing the kinase and RNase domains (KR, AA G547-1L977, D688N); made in house; host or cells: Sf9 insect cells
Test: IRE1α TR-FRET competition binding assay (IRE1α HTRF)
Conditions: His-tagged IRE1α kinase dead construct (KR, D688N) 0.25 nM; Alexa fluor 647-labeled ATP competitive probe 2 nM; one hour at room temperature; read-out: IRE1α (alpha) HTRF (IC50)
Method: Example 59. IRE1α TR-FRET Competition Binding Assay
To determine the affinity of compound binding to the kinase domain of IRE1α, a time-resolved fluorescence resonance energy transfer (TR-FRET) competition assay was used.
A His-tagged IRE1α kinase dead construct containing the kinase and RNase domains (KR, AA G547-1L977, D688N) was expressed in Sf9 insect cells. The purified protein (final concentration 0.25 nM) was pre-incubated with anti-His Europium labeled antibody (Life Technologies PV5596, final concentration 2 nM) for one hour at 4° C. in TR-FRET Assay Buffer (50 mM HEPES, pH 7.5, 10 mM MgCl2, 0.083 mM Brij 35, 1 mM DTT, and 0.1% bovine gamma globulin) prior to addition to test compounds. An Alexa fluor 647-labeled probe based on an ATP competitive inhibitor was added to a final concentration of 2 nM. Reactions were carried out for one hour at room temperature in a final volume of 20 μL in 384 well white ProxiPlates (Perkin Elmer 6008289). Binding of the probe to the IRE1α protein was detected in an Envision instrument (PerkinElmer) equipped with a TRF laser option and a LANCE/Delfia Dual/Bias D400/D630 mirror (Ex 347 nm, 1st Em 665 nm, 2nd Em 615 nm).

T1 sequence (O75460 547-977 D688N): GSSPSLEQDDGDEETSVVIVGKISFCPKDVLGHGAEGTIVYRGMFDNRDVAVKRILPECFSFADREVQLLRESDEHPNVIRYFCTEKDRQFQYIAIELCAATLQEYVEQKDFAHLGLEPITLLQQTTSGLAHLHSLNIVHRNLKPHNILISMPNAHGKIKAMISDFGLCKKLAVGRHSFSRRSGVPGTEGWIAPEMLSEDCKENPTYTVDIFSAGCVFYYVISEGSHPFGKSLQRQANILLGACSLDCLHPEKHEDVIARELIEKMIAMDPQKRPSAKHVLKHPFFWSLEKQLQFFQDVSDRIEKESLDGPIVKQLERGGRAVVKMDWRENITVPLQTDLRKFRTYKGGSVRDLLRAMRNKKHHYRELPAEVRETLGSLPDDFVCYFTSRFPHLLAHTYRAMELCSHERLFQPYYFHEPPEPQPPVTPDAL

Row | SMILES | IC50 [nM]
1 | Cc1nc(NS(=O)(=O)c2ccccc2Cl)ccc1-c1cc(C)c2nc(N[C@@H]3CNC[C@@H](F)C3)ncc2n1 [Compound 136, 2-Chloro-N-(5-(2-(((3S,5S)-5-fluoropiperidin-3-yl)amino)-8-methylpyrido[3,2-d]pyrimidin-6-yl)-6-methylpyridin-2-yl)benzenesulfonamide] | 14
2 | CCc1cc(-c2ccc(NS(=O)(=O)CCC(F)(F)F)c(F)c2)nc2cnc(N[C@@H]3CNC[C@@H](F)C3)nc12 [Compound 119, N-(4-(8-Ethyl-2-(((3S,5S)-5-fluoropiperidin-3-yl)amino)pyrido[3,2-d]pyrimidin-6-yl)-2-fluorophenyl)-3,3,3-trifluoropropane-1-sulfonamide formate] | 0.39
3 | O=S(=O)(Cc1ccccc1)Nc1ccc(-c2cc3cnc(N[C@@H]4CNC[C@@H](F)C4)nc3cn2)cc1F [Compound 101, N-(2-Fluoro-4-(2-(((3S,5S)-5-fluoropiperidin-3-yl)amino)pyrido[3,4-d]pyrimidin-6-yl)phenyl)-1-phenylmethanesulfonamide] | 3
4 | CN(C)[C@H]1CC[C@H](Nc2ncc3nc(-c4ccc(NS(=O)(=O)c5ccccc5Cl)c(F)c4)cc(C(F)F)c3n2)CC1 [Compound 143, 2-Chloro-N-[(1,4-trans)-4-[8-(difluoromethyl)-2-[[4-(dimethylamino)cyclohexyl]amino]pyrido[3,2-d]pyrimidin-6-yl]-2-fluoro-phenyl]benzenesulfonamide] | 0.2
5 | CCc1cc(-c2ccc(NS(=O)(=O)c3ccccc3Cl)nc2OC)nc2cnc(N[C@H]3CC[C@H](N(C)C)CC3)nc12 [Compound 141, 2-Chloro-N-(5-(2-(((1,4-trans)-4-(dimethylamino)cyclohexyl)amino)-8-ethylpyrido[3,2-d]pyrimidin-6-yl)-6-methoxypyridin-2-yl)benzenesulfonamide] | 0.43
6 | CCc1cc(-c2ccc(NS(=O)(=O)Cc3ccccc3)c(F)c2)nc2cnc(N[C@@H]3CNC[C@@H](F)C3)nc12 [Compound 122, N-(4-(8-Ethyl-2-(((3S,5S)-5-fluoropiperidin-3-yl)amino)pyrido[3,2-d]pyrimidin-6-yl)-2-fluorophenyl)-1-phenylmethanesulfonamide formate] | 0.2
7 | O=S(=O)(Cc1ccccc1)Nc1c(F)cc(-c2cc3cnc(N[C@@H]4CNC[C@@H](F)C4)nc3nc2OC2CCOC2)c(F)c1F (single isomer, unassigned) [Compound 105] | 0.39
8 | COc1cc(-c2ccc(NS(=O)(=O)CCC(F)(F)F)c(F)c2)nc2cnc(N[C@H]3CC[C@H](N(C)C)CC3)nc12 [Compound 118, N-(4-(2-(((1,4-trans)-4-(Dimethylamino)cyclohexyl)amino)-8-methoxypyrido[3,2-d]pyrimidin-6-yl)-2-fluorophenyl)-3,3,3-trifluoropropane-1-sulfonamide formate] | 22
9 | Cc1cc(-c2ccc(NS(=O)(=O)c3ccccn3)c(F)c2)nc2cnc(N[C@H]3CC[C@H](N(C)C)CC3)nc12 [Compound 158, N-(4-(2-(((1,4-trans)-4-(Dimethylamino)cyclohexyl)amino)-8-methylpyrido[3,2-d]pyrimidin-6-yl)-2-fluorophenyl)pyridine-2-sulfonamide] | 0.2
10 | O=S(=O)(Cc1ccccc1)Nc1c(F)cc(-c2cc3cnc(N[C@@H]4CNC[C@@H](F)C4)nc3nc2OC2CCOC2)c(F)c1F (single isomer, unassigned) [Compound 104] | 0.66
11 | Cc1cc(-c2ccc3c(c2)CCS(=O)(=O)N3)nc2cnc(N[C@H]3CC[C@H](N(C)C)CC3)nc12 [Compound 151, 6-(2-(((1,4-trans)-4-(Dimethylamino)cyclohexyl)amino)-8-methylpyrido[3,2-d]pyrimidin-6-yl)-3,4-dihydro-1H-benzo[c][1,2]thiazine 2,2-dioxide] | 39
12 | Cc1cc(-c2c(F)cc(NS(=O)(=O)Cc3ccc(F)cc3)cc2F)nc2cnc(N[C@H]3CC[C@H](N(C)C)CC3)nc12 [Compound 140, N-(4-(2-(((1,4-trans)-4-(Dimethylamino)cyclohexyl)amino)-8-methylpyrido[3,2-d]pyrimidin-6-yl)-3,5-difluorophenyl)-1-(4-fluorophenyl)methanesulfonamide] | 4.5
13 | CCc1cc(-c2ccc(NS(=O)(=O)c3ccccc3F)nc2C)nc2cnc(N[C@H]3CC[C@H](N(C)C)CC3)nc12 [Compound 146, N-(5-(2-(((1,4-trans)-4-(dimethylamino)cyclohexyl)amino)-8-ethylpyrido[3,2-d]pyrimidin-6-yl)-6-methylpyridin-2-yl)-2-fluorobenzenesulfonamide] | 0.21
14 | Cc1cc(-c2ccc(NS(=O)(=O)c3cccnc3C(F)(F)F)c(F)c2)nc2cnc(N[C@H]3CC[C@H](N(C)C)CC3)nc12 [Compound 157, N-[4-[2-[[(1,4-trans)-4-(Dimethylamino)cyclohexyl]amino]-8-methyl-pyrido[3,2-d]pyrimidin-6-yl]-2-fluoro-phenyl]-2-(trifluoromethyl)pyridine-3-sulfonamide] | 0.23
15 | Cc1cc(-c2cc(F)c(NS(=O)(=O)Cc3ccc(F)cc3)cc2F)nc2cnc(N[C@H]3CC[C@H](N(C)C)CC3)nc12 [Compound 137, N-(4-(2-(((1,4-trans)-4-(Dimethylamino)cyclohexyl)amino)-8-methylpyrido[3,2-d]pyrimidin-6-yl)-2,5-difluorophenyl)-1-(4-fluorophenyl)methanesulfonamide] | 0.23
16 | CC(Oc1nc2nc(N[C@@H]3CNC[C@@H](F)C3)ncc2cc1-c1ccc(NS(=O)(=O)Cc2ccccc2)c(F)c1F)C(F)F (single isomer, unassigned) [Compound 102] | 1.1
17 | O=S(=O)(Cc1ccccc1)Nc1ccc(-c2ccc3nc(N[C@@H]4CNC[C@@H](F)C4)ncc3n2)cc1F [Compound 100, N-(2-Fluoro-4-(2-(((3S,5S)-5-fluoropiperidin-3-yl)amino)pyrido[3,2-d]pyrimidin-6-yl)phenyl)-1-phenylmethanesulfonamide] | 0.89

The remaining compounds from weak to strong by IC50, led by results:

Row | IC50 [nM] | SMILES
18 | 0.2 | CN(C)[C@H]1CC[C@H](Nc2ncc3nc(-c4ccc(NS(=O)(=O)Cc5ccc(F)cc5)c(F)c4)cc(CF)c3n2)CC1 [Compound 130, N-[4-[2-[[(1,4-trans)-4-(Dimethylamino)cyclohexyl]amino]-8-(fluoromethyl)pyrido[3,2-d]pyrimidin-6-yl]-2-fluoro-phenyl]-1-(4-fluorophenyl)methanesulfonamide]
19 | 0.18 | Cc1cc(-c2ccc(NS(=O)(=O)c3cnccc3C(F)(F)F)c(F)c2)nc2cnc(N[C@H]3CC[C@H](N(C)C)CC3)nc12 [Compound 156, N-[4-[2-[[(1,4-trans)-4-(Dimethylamino)cyclohexyl]amino]-8-methyl-pyrido[3,2-d]pyrimidin-6-yl]-2-fluoro-phenyl]-4-(trifluoromethyl)pyridine-3-sulfonamide]
20 | 0.18 | CCc1cc(-c2ccc(NS(=O)(=O)c3ccccc3Cl)c(F)c2)nc2cnc(N[C@@H]3CNC[C@@H](F)C3)nc12 [Compound 123, 2-Chloro-N-(4-(8-ethyl-2-(((3S,5S)-5-fluoropiperidin-3-yl)amino)pyrido[3,2-d]pyrimidin-6-yl)-2-fluorophenyl)benzenesulfonamide formate]
21 | 0.17 | Cc1cc(-c2ccc(NS(=O)(=O)CCC(C)(F)F)c(F)c2)nc2cnc(N[C@H]3CC[C@H](N(C)C)CC3)nc12 [Compound 113, N-(4-(2-(((1,4-trans)-4-(Dimethylamino)cyclohexyl)amino)-8-methylpyrido[3,2-d]pyrimidin-6-yl)-2-fluorophenyl)-3,3-difluorobutane-1-sulfonamide formate]
22 | 0.16 | CC(C)c1cc(-c2ccc(NS(=O)(=O)CCC(F)(F)F)c(F)c2)nc2cnc(N[C@H]3CC[C@H](N(C)C)CC3)nc12 [Compound 124, N-(4-(2-(((1,4-trans)-4-(Dimethylamino)cyclohexyl)amino)-8-isopropylpyrido[3,2-d]pyrimidin-6-yl)-2-fluorophenyl)-3,3,3-trifluoropropane-1-sulfonamide]
23 | 0.14 | CCc1cc(-c2ccc(NS(=O)(=O)Cc3ccc(F)cc3)nc2OC)nc2cnc(N[C@H]3CC[C@H](N(C)C)CC3)nc12 [Compound 142, N-(5-(2-(((1,4-trans)-4-(Dimethylamino)cyclohexyl)amino)-8-ethylpyrido[3,2-d]pyrimidin-6-yl)-6-methoxypyridin-2-yl)-1-(4-fluorophenyl)methanesulfonamide]
24 | 0.12 | CCc1cc(-c2ccc(NS(=O)(=O)Cc3ccc(S(C)(=O)=O)cc3)c(F)c2)nc2cnc(N[C@H]3CC[C@H](N(C)C)CC3)nc12 [Compound 152, N-(4-(2-(((1,4-trans)-4-(Dimethylamino)cyclohexyl)amino)-8-ethylpyrido[3,2-d]pyrimidin-6-yl)-2-fluorophenyl)-1-(4-(methylsulfonyl)phenyl)methanesulfonamide]
25 | 0.08 | Cc1cc(-c2ccc(NS(=O)(=O)Cc3ccc(F)cc3)c(F)c2)nc2cnc(N[C@H]3CC[C@H](N(C)C)CC3)nc12 [Compound 129, N-(4-(2-(((1,4-trans)-4-(Dimethylamino)cyclohexyl)amino)-8-methylpyrido[3,2-d]pyrimidin-6-yl)-2-fluorophenyl)-1-(4-fluorophenyl)methanesulfonamide]
